Measurements taken from patent US20120129811A1, “TRICYCLIC INHIBITORS OF PRO-MATRIX METALLOPROTEINASE ACTIVATION” (priority 2010, published 2012).
Where a name gives a salt, the structure may show the parent alone.

Tests used:
[1] = target: T1, full-length proMMP9(1-707) activation by catalytic MMP3 (Homo sapiens, UniProt P14780, R574P); assay: proMMP9/MMP3 P126 Activation Assay; assay type: biochemical
T1 construct: made in house; host or cells: proMMP9: HEK293 (secreted); MMP3: E. coli
Protocol: proMMP9/MMP3 P126 Activation Assay
The reaction volume was 50 μL. […] Reactivity of residual MMP3 towards P-126 substrate was minimal under these conditions.

[2] = target: T2, proMMP9(20-445;ΔFnII) (SEQ ID NO:6) (Homo sapiens, UniProt P14780, DEL216-390); assay: ThermoFluor binding assay with proMMP9(20-445;ΔFnII)
T2 construct: start methionine (N); made in house; host or cells: E. coli BL21(DE3) RIL
T2 sequence (P14780 with tags, fused parts or gaps DEL216-390): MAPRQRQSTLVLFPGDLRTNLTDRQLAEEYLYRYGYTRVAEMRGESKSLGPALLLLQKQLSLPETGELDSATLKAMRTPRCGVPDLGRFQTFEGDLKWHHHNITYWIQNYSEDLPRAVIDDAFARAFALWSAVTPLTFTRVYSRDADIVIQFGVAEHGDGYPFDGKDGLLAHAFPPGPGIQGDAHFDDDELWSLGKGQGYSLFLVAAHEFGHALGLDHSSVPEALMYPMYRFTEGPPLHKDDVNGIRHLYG
Method in brief: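 Protein thermal stability was measured with 2.8 μM proMMP9(20-445;ΔFnII) and 50 μM 1,8-ANS in 50 mM HEPES pH 7.0, 100 mM NaCl, 0.001% Tween-20, 2.5 mM MgCl2, 300 μM CaCl2, across serial compound dilutions. Samples were heated 40–90° C at 1° C/min with fluorescence read at 500 nm. Tm was fitted, and binding was derived from thermodynamic parameters obtained by DSC and ThermoFluor.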

[3] = target: T3, proMMP9(67-444;ΔFnII) (SEQ ID NO:5) (Homo sapiens, UniProt P14780, DEL216-390); assay: ThermoFluor binding assay with proMMP9(67-444;ΔFnII)
T3 construct: start methionine (N); made in house; host or cells: E. coli BL21(DE3) RIL
T3 sequence (P14780 with tags, fused parts or gaps DEL216-390): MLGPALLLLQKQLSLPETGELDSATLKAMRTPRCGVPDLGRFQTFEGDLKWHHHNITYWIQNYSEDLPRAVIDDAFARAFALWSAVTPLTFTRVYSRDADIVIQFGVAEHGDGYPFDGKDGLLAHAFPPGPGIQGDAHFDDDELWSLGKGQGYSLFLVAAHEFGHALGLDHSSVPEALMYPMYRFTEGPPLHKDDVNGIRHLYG
Method in brief: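 Thermal shift of 3.5 μM proMMP9(67-444;ΔFnII), desalted beforehand, with 50 μM 1,8-ANS in 50 mM HEPES pH 7.0, 100 mM NaCl, 2.5 mM MgCl2, 300 μM CaCl2, 0.001% Tween-20. Heated 40–90 °C at 1 °C/min, fluorescence read at 500 nm; binding fitted from Tm shifts using DSC- and ThermoFluor-derived unfolding parameters.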

T1 sequence (P14780 20-707 R574P): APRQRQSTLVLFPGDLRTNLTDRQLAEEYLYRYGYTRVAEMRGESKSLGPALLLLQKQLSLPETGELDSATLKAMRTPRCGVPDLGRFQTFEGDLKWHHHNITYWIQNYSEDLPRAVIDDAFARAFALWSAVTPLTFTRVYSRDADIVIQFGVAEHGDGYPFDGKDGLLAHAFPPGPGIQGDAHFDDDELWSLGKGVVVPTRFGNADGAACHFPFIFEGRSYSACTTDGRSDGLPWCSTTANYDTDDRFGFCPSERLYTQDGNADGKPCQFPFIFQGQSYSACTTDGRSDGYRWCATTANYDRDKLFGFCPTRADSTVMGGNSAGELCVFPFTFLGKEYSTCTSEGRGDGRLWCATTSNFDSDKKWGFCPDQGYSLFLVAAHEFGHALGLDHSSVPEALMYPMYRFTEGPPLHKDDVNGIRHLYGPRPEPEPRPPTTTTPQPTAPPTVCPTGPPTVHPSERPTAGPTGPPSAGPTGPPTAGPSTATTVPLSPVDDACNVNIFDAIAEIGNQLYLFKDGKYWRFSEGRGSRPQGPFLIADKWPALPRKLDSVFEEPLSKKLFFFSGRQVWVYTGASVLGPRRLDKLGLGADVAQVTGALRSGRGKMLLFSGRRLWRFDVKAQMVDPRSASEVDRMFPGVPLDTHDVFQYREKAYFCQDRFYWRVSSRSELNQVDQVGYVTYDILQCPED

SMILES	IC50 [1] [nM]	Kd [2] [nM]	Kd [3] [nM]
COc1ccc(S(C)(=O)=O)cc1Nc1nc2c(ccc3c2cnn3CC(C)C)s1 [Example 108, (6-Isobutyl-6H-3-thia-1,6,7-triaza-as-indacen-2-yl)-(5-methanesulfonyl-2-methoxy-phenyl)-amine.TFA]	650	> 95000	1400
COc1ccc(-c2cn[nH]c2)cc1Nc1nc2c(ccc3c2ncn3C)s1 [Example 70, [2-Methoxy-5-(1H-pyrazol-4-yl)-phenyl]-(6-methyl-6H-imidazo[4′,5%3,4]benzo[2,1-d]thiazol-2-yl)-amine.HCl]	310	560	120
CC(C)Oc1ccc(S(C)(=O)=O)cc1Nc1nc2c(ccc3ncn(CC(F)(F)F)c32)s1 [Example 146, (2-Isopropoxy-5-methanesulfonyl-phenyl)-[8-(2,2,2-trifluoro-ethyl)-8H-imidazo[4′,5′:3,4]-benzo[2,1-d]thiazol-2-yl]-amine.TFA]	800	3100	640
COc1ccc(C#N)cc1Nc1nc2c(ccc3c2ccn3C)s1 [Example 85, 4-Methoxy-3-(6-methyl-6H-thiazolo[4,5-e]indol-2-ylamino)-benzonitrile.HCl]	150	580	150
COc1ncccc1Nc1nc2c(ccc3c2ncn3C)s1 [Example 74, (2-Methoxy-pyridin-3-yl)-(6-methyl-6H-imidazo[4′,5′:3,4]-benzo[2,1-d]thiazol-2-yl)-amine.HCl]	4700	6000	3700
Cn1cnc2c3nc(Nc4ccccc4[N+](=O)[O-])sc3ccc21 [Example 77, (6-Methyl-6H-imidazo[4′,5′:3,4]-benzo[2,1-d]thiazol-2-yl)-(2-nitro-phenyl)-amine.HCl]	1100	3200	2600
COc1ccc(C#N)cc1Nc1nc2c(ccc3c2ncn3C)s1 [Example 67, 4-Methoxy-3-(6-methyl-6H-imidazo[4′,5′:3,4]benzo[2,1-d]thiazol-2-ylamino)-benzonitrile.HCl]	100	87	77
Cc1nc2c3nc(Nc4cnccc4OC(C)C)sc3ccc2n1C [Example 158, N-(4-Isopropoxypyridin-3-yl)-6,7-dimethyl-6H-imidazo[4′,5′:5,6]benzo[1,2-d]thiazol-2-amine.HCl]	64	260	14
COc1ccc(C(N)=O)cc1Nc1nc2c(ccc3cnccc32)s1 [Example 96, 4-Methoxy-3-(thiazolo[4,5-f]isoquinolin-2-ylamino)-benzamide.TFA]	730	730	440
COc1c(Nc2nc3c(ccc4c3ncn4C)s2)cc(C(N)=O)cc1C(F)(F)F [Example 53, 4-Methoxy-3-(6-methyl-6H-imidazo[4′,5′:3,4]benzo[2,1-d]thiazol-2-ylamino)-5-trifluoromethyl-benzamide.HCl]	4200	4000	6200
COc1ccc(NC(N)=O)cc1Nc1nc2c(ccc3c2ncn3C)s1 [Example 87, [4-Methoxy-3-(6-methyl-6H-imidazo[4′,5′:3,4]benzo[2,1-d]thiazol-2-ylamino)-phenyl]-urea.HCl]	650	6000	1600
CC(C)Oc1ccc(S(C)(=O)=O)cc1Nc1nc2c(ccc3c2ncn3C)s1 [Example 147, (2-Isopropoxy-5-methanesulfonyl-phenyl)-(6-methyl-6H-imidazo[4′,5′:3,4]benzo[2,1-d]thiazol-2-yl)-amine.TFA]	220	1400	400
Cn1cnc2ccc3sc(Nc4cc(S(N)(=O)=O)ccc4OC(F)(F)F)nc3c21 [Example 128, 3-(8-Methyl-8H-imidazo[4′,5′:3,4]benzo[2,1-d]thiazol-2-ylamino)-4-trifluoromethoxy-benzenesulfonamide.TFA]	680	4900	1500
CC(C)Oc1ccc(C#N)cc1Nc1nc2c(ccc3c2ncn3C)s1 [Example 160, 4-isopropoxy-3-((6-methyl-6H-imidazo[4′,5′:5,6]benzo[1,2-d]thiazol-2-yl)amino)benzonitrile.HCl]	160	290	75
Cc1[nH]c2c(ccc3sc(Nc4cc(C(N)=O)ccc4OC(C)C)nc32)c1C [Example 45, 3-(6,7-Dimethyl-8H-3-thia-1,8-diaza-as-indacen-2-ylamino)-4-isopropoxy-benzamide.HCl]	3900	780	3300
CCOc1ccncc1Nc1nc2c(ccc3c2ncn3C)s1 [Example 156, N-(4-Ethoxypyridin-3-yl)-6-methyl-6H-imidazo[4′,5′:5,6]benzo[1,2-d]thiazol-2-amine.HCl]	100	650	40
Cc1nc2ccc3sc(Nc4ccccc4OC(C)C)nc3c2s1 [Example 17, (2-Isopropoxy-phenyl)-(2-methyl-benzo[1,2-d;3,4-d′]-bisthiazol-7-yl)-amine.HCl]	5800	> 95000	> 95000
COc1ccccc1Nc1nc2c(ccc3c2cnn3C)s1 [Example 94, (2-Methoxy-phenyl)-(6-methyl-6H-3-thia-1,6,7-triaza-as-indacen-2-yl)-amine.TFA]	510	15000	9200
CCOc1ccncc1Nc1nc2c(ccc3nc(C)n(CC)c32)s1 [Example 155, N-(4-Ethoxypyridin-3-yl)-8-ethyl-7-methyl-8H-imidazo[4′,5′:5,6]benzo[1,2-d]thiazol-2-amine.TFA]	150	720	140
NS(=O)(=O)c1ccc(OC(F)(F)F)c(Nc2nc3c(ccc4cnccc43)s2)c1 [Example 98, 3-(Thiazolo[4,5-f]isoquinolin-2-ylamino)-4-trifluoromethoxy-benzenesulfonamide.TFA]	> 20000	7600	3000
CC(C)Oc1ccc(S(N)(=O)=O)cc1Nc1nc2c(ccc3ncn(CC(F)(F)F)c32)s1 [Example 137, 4-Isopropoxy-3-[8-(2,2,2-trifluoro-ethyl)-8H-imidazo[4′,5′:3,4]-benzo[2,1-d]thiazol-2-ylamino]-benzenesulfonamide.TFA]	1100	440	630
